Reference: PubChem BioAssay (NCI)
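How tested: cells in 96-well plates exposed to compound for 48 hours at five concentrations. GI50: concentration for 50% inhibition of growth. At the TGI there is no net growth.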

Legend:
Test in all cases: growth of human tumour cells (NCI), 48 h
786-0 renal = system: 786-0 renal
A498 renal = system: A498 renal
A549 NSCLC = system: A549 NSCLC
ACHN renal = system: ACHN renal
BT-549 breast = system: BT-549 breast
CAKI-1 renal = system: CAKI-1 renal
CCRF-CEM leukemia = system: CCRF-CEM leukemia
COLO 205 colon = system: COLO 205 colon
DU-145 prostate = system: DU-145 prostate
EKVX NSCLC = system: EKVX NSCLC
HCC-2998 colon = system: HCC-2998 colon
HCT-116 colon = system: HCT-116 colon
HCT-15 colon = system: HCT-15 colon
HL-60(TB) leukemia = system: HL-60(TB) leukemia
HOP-62 NSCLC = system: HOP-62 NSCLC
HOP-92 NSCLC = system: HOP-92 NSCLC
HS 578T breast = system: HS 578T breast
HT29 colon = system: HT29 colon
IGROV1 ovarian = system: IGROV1 ovarian
K-562 leukemia = system: K-562 leukemia
KM12 colon = system: KM12 colon
LOX IMVI melanoma = system: LOX IMVI melanoma
M14 melanoma = system: M14 melanoma
MALME-3M melanoma = system: MALME-3M melanoma
MCF7 breast = system: MCF7 breast
MDA-MB-231 breast = system: MDA-MB-231 breast
MDA-MB-435 = system: MDA-MB-435
MDA-MB-468 breast = system: MDA-MB-468 breast
MOLT-4 leukemia = system: MOLT-4 leukemia
NCI-H226 lung = system: NCI-H226 lung

## N#Cc1c(NC(=O)c2ccc(C(F)(F)F)c(Cl)c2)sc2c1CCC(=O)C2
786-0 renal
  GI50: 1.85 µM
  TGI: 5.53 µM
A498 renal
  GI50: 12.6 µM
  TGI: 34.9 µM
A549 NSCLC
  GI50: 2.44 µM
  TGI: 7.66 µM
ACHN renal
  GI50: 0.692 µM
  TGI: 1.86 µM
BT-549 breast
  GI50: 0.365 µM
  TGI: 1.41 µM
CAKI-1 renal
  GI50: 0.725 µM
  TGI: 2.12 µM
CCRF-CEM leukemia
  GI50: 0.334 µM
  TGI: 3.53 µM
COLO 205 colon
  GI50: 1.17 µM
  TGI: 2.61 µM
DU-145 prostate
  GI50: 3.93 µM
  TGI: 18.3 µM
EKVX NSCLC
  GI50: 1.9 µM
  TGI: 4.92 µM
HCC-2998 colon
  GI50: 1.67 µM
  TGI: 3.35 µM
HCT-116 colon
  GI50: 0.371 µM
  TGI: 1.43 µM
HCT-15 colon
  GI50: 0.963 µM
  TGI: 2.86 µM
HL-60(TB) leukemia
  GI50: 1.16 µM
  TGI: 5.39 µM
HOP-62 NSCLC
  GI50: 2.16 µM
  TGI: 6.05 µM
HOP-92 NSCLC
  GI50: 1.19 µM
  TGI: 3.24 µM
HS 578T breast
  GI50: 0.891 µM
  TGI: 3.49 µM
HT29 colon
  GI50: 0.943 µM
  TGI: 3.53 µM
IGROV1 ovarian
  GI50: 1.52 µM
  TGI: 3.07 µM
K-562 leukemia
  GI50: 0.336 µM
  TGI: 5.22 µM
KM12 colon
  GI50: 1.14 µM
  TGI: 3.53 µM
LOX IMVI melanoma
  GI50: 0.561 µM
  TGI: 2.04 µM
M14 melanoma
  GI50: 0.922 µM
  TGI: 2.69 µM
MALME-3M melanoma
  GI50: 1.26 µM
  TGI: 3.15 µM
MCF7 breast
  GI50: 1.47 µM
  TGI: 7.5 µM
MDA-MB-231 breast
  GI50: 1.46 µM
  TGI: 3 µM
MDA-MB-435
  GI50: 1.6 µM
  TGI: 3.08 µM
MDA-MB-468 breast
  GI50: 0.416 µM
  TGI: 1.49 µM
MOLT-4 leukemia
  GI50: 0.568 µM
  TGI: 6.26 µM
NCI-H226 lung
  GI50: 2.59 µM
